Experimental findings from patent publication US8871753B2, “Macrocyclic compounds and their use as kinase inhibitors” (Incyte Corporation, priority 2008, dated 2014) are described below.

Structures can show the parent of a compound that is named as a salt. Where two headings read alike, the source gives them in different places.

Holding throughout (assay type): biochemical
Experiment [1] addresses T1, Recombinant Human Anaplastic Lymphoma Kinase (Homo sapiens, UniProt Q9UM73).
T1 construct: purchased Invitrogen, Carlsbad, Calif
Kind of experiment: ALK HTRF kinase assay. A digest of the protocol: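 Compounds were incubated with recombinant human ALK and a biotin-tagged peptide substrate. Product was captured with streptavidin-APC and probed with a europium anti-phosphotyrosine antibody, and plates were read for time-resolved fluorescence. Dose-response data were fitted to derive IC50.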
In general terms: Time-resolved FRET reads energy transfer from a long-lived donor to a nearby acceptor.

The target in experiment [2] is T2, human JAK1 (a.a. 837-1142) (Homo sapiens, UniProt P23458).
T2 construct: human JAK1 (a.a. 837-1142); His tag (N); made in house; host or cells: insect cells (baculovirus)
T2 sequence (P23458 849-1154): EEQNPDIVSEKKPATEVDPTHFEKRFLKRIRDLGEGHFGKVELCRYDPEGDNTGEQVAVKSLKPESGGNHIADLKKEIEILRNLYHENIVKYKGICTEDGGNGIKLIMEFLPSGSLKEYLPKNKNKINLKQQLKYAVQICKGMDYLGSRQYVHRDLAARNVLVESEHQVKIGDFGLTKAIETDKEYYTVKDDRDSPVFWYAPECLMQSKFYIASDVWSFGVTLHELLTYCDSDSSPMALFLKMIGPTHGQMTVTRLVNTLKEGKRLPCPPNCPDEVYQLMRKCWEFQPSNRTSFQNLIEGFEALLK
Kind of experiment: In vitro JAK kinase assay (HTRF, phosphorylation of a biotinylated peptide), JAK1. As to conditions: read-out: JAK1 IC50. The method in brief: (§1)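 Kinase activity was measured as phosphorylation of a biotinylated peptide, with ATP at 90 μM for JAK1, 30 μM for JAK2 and 3 μM for JAK3. Reactions ran 1 hr at room temperature, were stopped with EDTA plus SA-APC and Eu-Py20, and were read by HTRF after 40 minutes of antibody binding.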

The target in experiment [3] is T3, human JAK2 (a.a. 828-1132) (Homo sapiens, UniProt O60674).
T3 construct: JAK2 (a.a. 828-1132); His tag (N); made in house; host or cells: insect cells (baculovirus)
T3 sequence (O60674 828-1132): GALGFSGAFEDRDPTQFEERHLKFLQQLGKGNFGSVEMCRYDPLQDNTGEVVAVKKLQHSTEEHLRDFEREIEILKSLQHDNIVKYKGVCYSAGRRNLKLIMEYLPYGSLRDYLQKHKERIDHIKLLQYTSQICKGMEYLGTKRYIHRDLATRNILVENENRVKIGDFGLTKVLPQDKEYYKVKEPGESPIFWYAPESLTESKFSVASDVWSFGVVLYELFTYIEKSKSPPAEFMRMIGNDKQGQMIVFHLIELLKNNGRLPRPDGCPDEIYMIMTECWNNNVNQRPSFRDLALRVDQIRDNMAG
Kind of experiment: In vitro JAK kinase assay (HTRF, phosphorylation of a biotinylated peptide), JAK2. A digest of the protocol: as §1

Experiment [4] addresses T4, human JAK3 (a.a. 781-1124) (Homo sapiens, UniProt P52333).
T4 construct: JAK3 (a.a. 781-1124); His tag (N); made in house; host or cells: insect cells (baculovirus)
Kind of experiment: In vitro JAK kinase assay (HTRF, phosphorylation of a biotinylated peptide), JAK3. A digest of the protocol:
as §1

A further experiment concerns the target TYK2 (Homo sapiens, UniProt P29597). Kind of experiment: TYK2 kinase inhibition (Table A1).
Where [5] appears, read: compound at 500 nM or 1 mM, 90 μM ATP.
The mark [6] stands for this setting: method AA1 (90 μM ATP) or AA2 (1000 μM ATP), not stated per value.
Setting [7] is: method AA1 (30 μM ATP) or AA2 (1000 μM ATP), not stated per value.
Where [8] appears, read: method AA1 (3 μM ATP) or AA2 (1000 μM ATP), not stated per value.
Setting [9] is: Table B1, cells without percent sign.
[10] abbreviates: compound at a concentration of 500 nM or 1 mM (not specified), cells shown as percentage.
Setting [11] is: percentage inhibition of the example compound at a concentration of 500 nM or 1 mM (not specified which).

T1 sequence (Q9UM73 19-1620): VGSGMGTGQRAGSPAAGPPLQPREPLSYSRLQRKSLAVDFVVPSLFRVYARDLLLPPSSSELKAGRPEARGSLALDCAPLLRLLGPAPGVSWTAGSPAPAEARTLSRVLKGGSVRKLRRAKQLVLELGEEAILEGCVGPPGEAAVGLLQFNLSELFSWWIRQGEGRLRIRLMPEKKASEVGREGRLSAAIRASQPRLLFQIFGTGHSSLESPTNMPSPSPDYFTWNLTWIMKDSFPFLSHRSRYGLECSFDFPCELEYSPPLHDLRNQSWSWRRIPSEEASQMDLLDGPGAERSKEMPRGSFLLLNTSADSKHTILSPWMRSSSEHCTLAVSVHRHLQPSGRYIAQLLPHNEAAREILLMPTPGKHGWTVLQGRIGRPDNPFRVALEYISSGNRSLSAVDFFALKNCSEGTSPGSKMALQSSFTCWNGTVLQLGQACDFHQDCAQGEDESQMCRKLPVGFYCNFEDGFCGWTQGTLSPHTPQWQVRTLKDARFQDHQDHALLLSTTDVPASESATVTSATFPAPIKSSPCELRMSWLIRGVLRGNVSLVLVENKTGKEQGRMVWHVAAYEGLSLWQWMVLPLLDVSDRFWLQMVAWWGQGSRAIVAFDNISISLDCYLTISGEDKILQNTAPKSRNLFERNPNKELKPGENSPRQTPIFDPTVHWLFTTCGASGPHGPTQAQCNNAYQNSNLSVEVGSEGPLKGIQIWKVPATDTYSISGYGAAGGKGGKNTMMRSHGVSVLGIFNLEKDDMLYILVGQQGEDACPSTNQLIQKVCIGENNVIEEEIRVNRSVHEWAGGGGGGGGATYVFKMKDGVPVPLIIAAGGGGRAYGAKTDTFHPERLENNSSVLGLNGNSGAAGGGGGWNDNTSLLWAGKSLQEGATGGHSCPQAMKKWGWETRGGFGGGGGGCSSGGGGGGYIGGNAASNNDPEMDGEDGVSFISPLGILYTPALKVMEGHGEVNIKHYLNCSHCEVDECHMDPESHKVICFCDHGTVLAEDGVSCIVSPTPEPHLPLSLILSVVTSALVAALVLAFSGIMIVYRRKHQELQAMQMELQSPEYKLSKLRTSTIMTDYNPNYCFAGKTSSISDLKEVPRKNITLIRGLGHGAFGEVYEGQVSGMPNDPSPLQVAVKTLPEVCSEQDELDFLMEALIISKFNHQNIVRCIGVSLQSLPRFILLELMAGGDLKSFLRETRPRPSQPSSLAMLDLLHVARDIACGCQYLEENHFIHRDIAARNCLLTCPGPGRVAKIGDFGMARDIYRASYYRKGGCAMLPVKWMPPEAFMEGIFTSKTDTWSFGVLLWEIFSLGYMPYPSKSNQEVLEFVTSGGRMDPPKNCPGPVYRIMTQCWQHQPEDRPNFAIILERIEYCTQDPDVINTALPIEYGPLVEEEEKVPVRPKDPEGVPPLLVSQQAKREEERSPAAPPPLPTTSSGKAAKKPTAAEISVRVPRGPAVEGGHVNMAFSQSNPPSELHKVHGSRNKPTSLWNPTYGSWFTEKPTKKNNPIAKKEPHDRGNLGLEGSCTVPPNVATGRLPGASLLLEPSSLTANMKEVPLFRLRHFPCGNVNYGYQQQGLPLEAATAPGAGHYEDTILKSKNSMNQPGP
Sequence of TYK2 (P29597 whole entry): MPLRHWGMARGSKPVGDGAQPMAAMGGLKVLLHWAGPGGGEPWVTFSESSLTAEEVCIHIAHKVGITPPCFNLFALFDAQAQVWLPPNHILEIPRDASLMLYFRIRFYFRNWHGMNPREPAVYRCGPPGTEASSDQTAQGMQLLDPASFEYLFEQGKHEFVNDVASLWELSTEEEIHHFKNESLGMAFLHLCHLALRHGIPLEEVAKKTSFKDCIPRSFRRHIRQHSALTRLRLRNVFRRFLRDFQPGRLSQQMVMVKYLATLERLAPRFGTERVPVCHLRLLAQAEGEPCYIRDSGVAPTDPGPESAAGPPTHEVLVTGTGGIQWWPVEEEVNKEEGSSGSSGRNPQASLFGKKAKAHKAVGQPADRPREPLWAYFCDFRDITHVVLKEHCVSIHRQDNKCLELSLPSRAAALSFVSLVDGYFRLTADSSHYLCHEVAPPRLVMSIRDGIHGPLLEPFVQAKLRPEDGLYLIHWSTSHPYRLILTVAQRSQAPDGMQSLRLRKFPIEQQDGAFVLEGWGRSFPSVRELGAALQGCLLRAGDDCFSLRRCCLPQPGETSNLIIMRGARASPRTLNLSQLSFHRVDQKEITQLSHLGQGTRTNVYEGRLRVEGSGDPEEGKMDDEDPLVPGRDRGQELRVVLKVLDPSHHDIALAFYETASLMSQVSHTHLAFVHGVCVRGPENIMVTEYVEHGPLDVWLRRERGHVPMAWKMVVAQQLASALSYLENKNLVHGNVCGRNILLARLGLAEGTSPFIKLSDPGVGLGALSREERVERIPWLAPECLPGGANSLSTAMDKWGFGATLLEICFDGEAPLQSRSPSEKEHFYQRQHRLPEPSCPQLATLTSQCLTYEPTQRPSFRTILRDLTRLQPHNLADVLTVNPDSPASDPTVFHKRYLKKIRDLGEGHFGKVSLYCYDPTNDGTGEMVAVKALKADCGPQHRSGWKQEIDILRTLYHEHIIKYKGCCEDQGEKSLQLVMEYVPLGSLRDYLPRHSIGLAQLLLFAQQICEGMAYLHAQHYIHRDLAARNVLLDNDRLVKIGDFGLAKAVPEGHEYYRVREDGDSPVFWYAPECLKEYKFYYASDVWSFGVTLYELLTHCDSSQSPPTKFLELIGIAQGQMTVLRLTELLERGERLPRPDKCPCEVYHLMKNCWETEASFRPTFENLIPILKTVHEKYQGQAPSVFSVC
T4 sequence (P52333 781-1124): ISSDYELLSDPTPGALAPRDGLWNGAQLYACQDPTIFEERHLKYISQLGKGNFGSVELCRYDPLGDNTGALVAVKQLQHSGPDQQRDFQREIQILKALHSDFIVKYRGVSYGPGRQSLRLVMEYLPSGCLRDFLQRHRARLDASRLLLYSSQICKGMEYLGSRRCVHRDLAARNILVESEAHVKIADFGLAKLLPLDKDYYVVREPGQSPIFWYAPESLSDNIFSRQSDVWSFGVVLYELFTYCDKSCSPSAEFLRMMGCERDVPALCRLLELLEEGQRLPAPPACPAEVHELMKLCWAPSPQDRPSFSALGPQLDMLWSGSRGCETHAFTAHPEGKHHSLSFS

`CS(=O)(=O)N1CCC(CC(=O)Nc2ccc3cc2CCc2cncc(c2)Nc2ncc(Cl)c(n2)N3)CC1` [Example A79, N-[6-Chloro-2,4,8,18,22-pentaazatetracyclo[14.3.1.1(3,7).1(9,13)]docosa-1(20),3(22),4,6,9(21),10,12,16,18-nonaen-12-yl]-2-[1-(methylsulfonyl)piperidin-4-yl]acetamide bis(trifluoroacetate)]: in experiment [1] (setting [5]), the “ALK % of inhibition at a concentration of 500 nM or 1 mM” value (shortened to “ALK % of inhibition”) was 33%. The IC50 – broadly, the concentration at which inhibition is half-maximal – in experiment [2] (setting [6]) is 0.5 nM; in experiment [3] (setting [7]) it was 1.9 nM; in experiment [4] (setting [8]), 46 nM; against TYK2, 3.6 nM.

As to `Cc1n[nH]c(C)c1-c1cc2cc(c1)Nc1ncc(Cl)c(n1)Nc1cccc(c1)OCC2` [Example D30, 6-Chloro-19-(3,5-dimethyl-1H-pyrazol-4-yl)-14-oxa-2,4,8,23-tetraazatetracyclo[15.3.1.1(3,7).1(9,13)]tricosa-1(21),3(23),4,6,9(22),10,12,17,19-nonaene bis(trifluoroacetate)], the IC50 in experiment [1] (Table D1, 90 μM ATP) came to 157 nM; in experiment [2] (Table D1), 4.1 nM; in experiment [3] (Table D1), 0.6 nM; in experiment [4] (Table D1), 49 nM; against TYK2 (Table D1), 15 nM.

`O=C(Nc1ccc2cc1CCc1cccc(c1)Nc1ncc(Cl)c(n1)N2)c1ccsc1` [Example B62, N-[6-Chloro-2,4,8,22-tetraazatetracyclo[14.3.1.1(3,7).1(9,13)]docosa-1(20), 3(22),4,6,9(21),10,12,16,18-nonaen-12-yl]thiophene-3-carboxamide trifluoroacetate]: the IC50 is 210 nM in experiment [1] (setting [9]); 1.8 nM in experiment [2] (Table B1); 1.9 nM in experiment [3] (Table B1); 4.8 nM in experiment [4] (Table B1); 2.7 nM at TYK2 (Table B1).

With `O=C(NCc1ccco1)Nc1ccc2cc1CCc1cccc(c1)Nc1ncc(Cl)c(n1)N2` [Example B117, N-[6-Chloro-2,4,8,22-tetraazatetracyclo[14.3.1.1(3,7).1(9,13)]docosa-1(20), 3(22),4,6,9(21),10,12,16,18-nonaen-12-yl]-N′-(2-furylmethyl)urea trifluoroacetate], in experiment [1] (setting [10]), the “ALK % of inhibition” value was 21%. Also, the IC50 in experiment [2] (Table B1) came out at 1.1 nM; in experiment [3] (Table B1) it was 2.8 nM; in experiment [4] (Table B1), 17 nM; against TYK2 (Table B1) it was 4.5 nM.

For the compound `CN(C)C(=O)N1CCC(CC(=O)Nc2ccc3cc2CCc2cncc(c2)Nc2ncc(Cl)c(n2)N3)CC1` [Example A95, 4-(2-{[6-Chloro-2,4,8,18,22-pentaazatetracyclo[14.3.1.1(3,7).1(9,13)]docosa-1(20),3(22),4,6,9(21),10,12,16,18-nonaen-12-yl]amino}-2-oxoethyl)-N,N-dimethylpiperidine-1-carboxamide bis(trifluoroacetate)], the “ALK % of inhibition” value in experiment [1] (setting [5]) stood at 18%. Also, the half-inhibitory concentration (IC50) in experiment [2] (setting [6]) turned out to be 9.1 nM; in experiment [3] (setting [7]), 23 nM; in experiment [4] (setting [8]), 160 nM; on TYK2 it was 9 nM.

On to `Clc1cnc2nc1Nc1ccc(Nc3nccc(-c4ccccc4)n3)c(c1)CCc1cccc(c1)N2` [Example B279, 6-Chloro-N-(4-phenylpyrimidin-2-yl)-2,4,8,22-tetraazatetracyclo[14.3.1.1(3,7).1(9,13)]docosa-1(20),3(22),4,6,9(21),10,12,16,18-nonaen-12-amine tris(trifluoroacetate)], for which the “ALK % of inhibition” value in experiment [1] (setting [10]) is listed as 0.76%. For the same compound, the IC50 in experiment [2] (Table B1) was 86 nM; in experiment [3] (Table B1) it was 158 nM; in experiment [4] (Table B1) it was more than 10000 nM; at TYK2 (Table B1) it was 549 nM.

On to `O=C(NCCN1CCCC1)Nc1ccc2cc1CCc1cccc(c1)Nc1ncc(Cl)c(n1)N2` [Example B255, N-[6-Chloro-2,4,8,22-tetraazatetracyclo[14.3.1.1(3,7).1(9,13)]docosa-1(20),3(22),4,6,9(21),10,12,16,18-nonaen-12-yl]-N′-(2-pyrrolidin-1-ylethyl)urea bis(trifluoroacetate)], for which the “ALK % of inhibition” value in experiment [1] (setting [10]) is reported as 32%. In addition, the IC50 in experiment [2] (Table B1) turned out to be 5.5 nM; in experiment [3] (Table B1), 14 nM; in experiment [4] (Table B1), 53 nM; against TYK2 (Table B1), 25 nM.

For the compound `CC(=O)N1CCN(c2ccc(-c3cc4cc(c3)Nc3ncc(Cl)c(n3)Nc3cccc(c3)OCC4)cn2)CC1` [Example D37, 19-[6-(4-Acetylpiperazin-1-yl)pyridin-3-yl]-6-chloro-14-oxa-2,4,8,23-tetraazatetracyclo[15.3.1.1(3,7).1(9,13)]tricosa-1(21),3(23),4,6,9(22),10,12,17,19-nonaene tris(trifluoroacetate)], the IC50 in experiment [1] (Table D1, 90 μM ATP) amounted to 248 nM; in experiment [2] (Table D1), 0.9 nM; in experiment [3] (Table D1), 0.7 nM; in experiment [4] (Table D1), 9.9 nM; against TYK2 (Table D1) it was 1.4 nM.

In the case of `CC(=O)N1Cc2cccc(c2)Nc2nc(ncc2Cl)Nc2cccc1c2` [Example D71, 15-Acetyl-6-chloro-2,4,8,15,22-pentaazatetracyclo[14.3.1.1(3,7).1(9,13)]docosa-1(20),3(22),4,6,9(21),10,12,16,18-nonaene trifluoroacetate], the IC50 is more than 1000 nM in experiment [1] (Table D1, 90 μM ATP); 151 nM in experiment [2] (Table D1); 187 nM in experiment [3] (Table D1); 65 nM in experiment [4] (Table D1); 300 nM at TYK2 (Table D1).

For `O=C(CCC1CCNCC1)Nc1ccc2cc1CCc1cccc(c1)Nc1ncc(Cl)c(n1)N2` [Example A116, N-[6-Chloro-2,4,8,22-tetraazatetracyclo[14.3.1.1(3,7).1(9,13)]docosa-1(20),3(22),4,6,9(21),10,12,16,18-nonaen-12-yl]-3piperidin-4-ylpropanamide bis(trifluoroacetate)], in experiment [1] (setting [5]), the “ALK % of inhibition” value amounted to 27%. The IC50 in experiment [2] (setting [6]) is 14 nM; in experiment [3] (setting [7]), 20 nM; in experiment [4] (setting [8]), 44 nM; against TYK2 it was 33 nM.

As to `N#Cc1cccc(C(=O)N2CCC(CC(=O)Nc3ccc4cc3CCc3cncc(c3)Nc3ncc(Cl)c(n3)N4)CC2)c1` [Example A191, N-[6-Chloro-2,4,8,18,22-pentaazatetracyclo[14.3.1.1(3,7).1(9,13)]docosa-1(20),3(22),4,6,9(21),10,12,16,18-nonaen-12-yl]-2-[1-(3-cyanobenzoyl)piperidin-4-yl]acetamide bis(trifluoroacetate)], the “ALK % of inhibition” value in experiment [1] (setting [5]) is given as 25%. For the same compound, the concentration for half-maximal inhibition (IC50) in experiment [2] (setting [6]) was 67 nM; in experiment [3] (setting [7]), more than 200 nM; in experiment [4] (setting [8]), more than 200 nM; against TYK2, more than 200 nM.

`N#CNC(=O)Nc1ccc2cc1CCc1cccc(c1)Nc1ncc(Cl)c(n1)N2` [Example B323, N-[6-chloro-2,4,8,22-tetraazatetracyclo[14.3.1.1(3,7).1(9,13)]docosa-1(20),3(22),4,6,9(21),10,12,16,18-nonaen-12-yl]-N′-cyanourea trifluoroacetate]: the “ALK % of inhibition” value in experiment [1] (setting [11]) is listed as 20%. The IC50 in experiment [2] (Table B1) was determined as 12 nM; in experiment [3] (Table B1) it was 14 nM; in experiment [4] (Table B1), 2.1 nM; at TYK2 (Table B1), 0.89 nM.

On to `O=C(NCCNS(=O)(=O)c1ccc(Cl)s1)Nc1ccc2cc1CCc1cccc(c1)Nc1ncc(Cl)c(n1)N2` [Example B330, 5-Chloro-N-{2-[({[6-chloro-2,4,8,22-tetraazatetracyclo[14.3.1.1(3,7).1(9,13)]docosa-1(20),3(22),4,6,9(21),10,12,16,18-nonaen-12-yl]amino}carbonyl)amino]ethyl}thiophene-2-sulfonamide trifluoroacetate], for which, in experiment [1] (setting [11]), the “ALK % of inhibition” value is 21%. In addition, the IC50 in experiment [2] (Table B1) turned out to be 4 nM; in experiment [3] (Table B1), 6.1 nM; in experiment [4] (Table B1), 7.1 nM; against TYK2 (Table B1) it was 16 nM.

Take `O=C(CN1CCN(c2nc3cccnc3o2)CC1)Nc1ccc2cc1CCc1cncc(c1)Nc1ncc(Cl)c(n1)N2` [Example A118, N-[6-Chloro-2,4,8,18,22-pentaazatetracyclo[14.3.1.1(3,7).1(9,13)]docosa-1(20),3(22),4,6,9(21),10,12,16,18-nonaen-12-yl]-2-(4-[1,3]oxazolo[5,4-b]pyridin-2-ylpiperazin-1-yl)acetamide tris(trifluoroacetate)]: the “ALK % of inhibition” value in experiment [1] (setting [5]) was found to be 29%. For the same compound, the IC50 was found to be 0.9 nM in experiment [2] (setting [6]), 16 nM in experiment [3] (setting [7]), 150 nM in experiment [4] (setting [8]) and 20 nM against TYK2.

With `O=S(=O)(Nc1ccc2cc1CCc1cccc(c1)Nc1ncc(Cl)c(n1)N2)c1cccc(Cl)c1` [Example B138, 3-Chloro-N-[6-chloro-2,4,8,22-tetraazatetracyclo[14.3.1.1(3,7).1(9,13)]docosa-1(20),3(22),4,6,9(21),10,12,16,18-nonaen-12-yl]benzenesulfonamide trifluoroacetate], the half-maximal inhibitory concentration (IC50) in experiment [1] (setting [9]) stood at 100 nM; in experiment [2] (Table B1), 0.25 nM; in experiment [3] (Table B1), 0.1 nM; in experiment [4] (Table B1) it was 0.33 nM; on TYK2 (Table B1), 0.35 nM.
